# Key:
# [1] = molecular target: T1, BMPR1A (ALK3) (Homo sapiens, UniProt P36894); assay: radiometric protein kinase assay, ALK3; assay type: biochemical; details: [ATP] = 0.3μM; Fig. 7F
# T1 construct: purchased ProQinase GmbH (Freiburg, Germany); host or cells: bacteria (so in the source)
# [2] = molecular target: T2, caALK1 (Homo sapiens, UniProt P37023, Q201D); assay: caALK1-induced SMAD1/5 phosphorylation in HEK 293T cells; assay type: cell-based; details: cercosporamide 1-10 µM, LDN193189 200 nM
# T2 construct: expressed in transfected cells; host or cells: HEK 293T
# From the text: (§1) HepG2 or HEK 293T cells were lysed in Laemmli sample buffer. Proteins were separated by sodium dodecyl sulfate polyacrylamide gel electrophoresis (SDS-PAGE) and transferred onto […] polyvinylidene difluoride (PVDF) membrane (IPVH00010, Merck Millipore). Membranes were blocked using 5% non-fat dry milk in Tris-buffered saline with 0.1% Tween 20 (655204, Merck Millipore) and probed with the respective primary and secondary antibodies. The signal was detected using Clarity™ Western ECL Substrate (1705060, Bio-Rad) and ChemiDoc Imaging System (17001402, Bio-Rad). The antibodies used for immunoblotting were raised against the following proteins: phospho-SMAD1/5/8 ([Persson et al., 1998]; 1:1000), SMAD1 (Cell Signaling Technology, #6944; 1:1000), GAPDH (Merck Millipore, #G8795; 1:5000) and hemagglutinin (HA; Roche, #12CA5; 1:1000).
# (§2) For experiments with the caALK type I receptor constructs, HEK 293T cells were seeded in 24-well plates at ∼90% confluency and transfected with the DNA expression constructs in the presence of PEI. Thirty hours after transfection, the cells were added to serum-starved medium and treated with compounds for 16 h (overnight). Subsequently, the cells were washed with PBS and lysed in Laemmli sample buffer. […]
# [3] = molecular target: T3, ACV-RL1 (ALK1) (Homo sapiens, UniProt P37023); assay: radiometric protein kinase assay, ALK1; assay type: biochemical; details: [ATP] = 1 μM; Fig. 7D
# T3 construct: purchased ProQinase GmbH (Freiburg, Germany); host or cells: bacteria (so in the source)
# [4] = molecular target: T4, BMPR1B (ALK6) (Homo sapiens, UniProt O00238); assay: radiometric protein kinase assay, ALK6; assay type: biochemical; details: [ATP] = 3 μM; Fig. 7G
# T4 construct: purchased ProQinase GmbH (Freiburg, Germany); host or cells: bacteria (so in the source)
# [5] = test system: BMP6-induced SMAD1/5 phosphorylation; assay: BMP6-induced SMAD1/5 phosphorylation in HepG2 cells (immunoblot); assay type: cell-based, human; details: HepG2, BMP6 50 ng/ml; higher concentrations
# Description: For BMP stimulation, the HepG2 cells (∼50% confluency) were starved on serum-free medium for 6 h. Subsequently, prior to the addition of BMP ligands, the cells were treated with compound for 30 min. Next, the cells were stimulated with BMP2 (50 ng/ml) or BMP6 (50 ng/ml) for 45 min. The cells were then washed with PBS and lysed in Laemmli sample buffer for western blot analysis.
# as §1
# [6] = test system: MEK and anaplastic lymphoma kinase (ALK) versus ALK serine/threonine kinases; assay: kinase panel: sensitivity of control kinases relative to ALK serine/threonine kinases; assay type: biochemical, human; details: ratio of IC50 values
# Description: IC50 values were calculated using Prism 5.04 for Windows (GraphPad, San Diego, CA, USA; www.graphpad.com). The mathematical model used was ‘Sigmoidal response (variable slope)’ with parameters ‘top’ fixed at 100% and ‘bottom’ at 0%. The fitting method used was a least-squares fit.
# [7] = test system: BMP2-induced SMAD1/5-dependent BRE-luc transcriptional reporter; assay: BMP2-induced BRE-luc transcriptional reporter assay in HepG2 cells; assay type: cell-based, human; details: HepG2, BMP2 50 ng/ml; cercosporamide 100 nM to 10 µM, LDN-193189 200 nM
# Description: For luciferase transcriptional reporter assays, HepG2 cells were seeded in 9-cm plates at ∼60% confluency and transfected with polyethyleneimine (PEI). Twenty-four hours later, the transfected cells were seeded in 24-well plates at ∼60% confluency. Another 24 h later, the cells were serum starved for 6 h. Subsequently the cells were treated with compound or DMSO for 30 min. Thereafter, the cells were stimulated with BMP2 in the presence of compounds (or DMSO) for 16 h (overnight). Subsequently, the cells were washed with PBS and lysed. Luciferase activity was measured using the luciferase reporter assay system from Promega (Leiden, The Netherlands) by a Perkin Elmer luminometer Victor^3 1420. Each DNA transfection mixture was equalized with empty vector when necessary and every experiment was performed in triplicate. β-galactosidase expression construct was co-transfected and β-galactosidase was measured to normalize for differences in transfection efficiency. The BRE-luc reporter construct has been reported previously ([Korchynskyi and ten Dijke, 2002]).
# [8] = test system: caALK6; assay: caALK6-induced SMAD1/5 phosphorylation in HEK 293T cells; assay type: cell-based, human; details: cercosporamide 1-10 µM, LDN193189 200 nM
# From the text: as §1, §2
# [9] = molecular target: T5, MEK (MEK1 wt) (Homo sapiens, UniProt Q02750); assay: radiometric protein kinase assay, MEK; assay type: biochemical; details: [ATP] = 3 μM; Fig. 7H
# T5 construct: purchased ProQinase GmbH (Freiburg, Germany); host or cells: bacteria (so in the source)
# [10] = molecular target: T6, TGFB-R1 (ALK5) (Homo sapiens, UniProt P36897); assay: radiometric protein kinase assay, ALK5; assay type: biochemical; details: [ATP] = 1 μM; Fig. 7K
# T6 construct: purchased ProQinase GmbH (Freiburg, Germany); host or cells: bacteria (so in the source)
# T6 sequence (P36897 34-503): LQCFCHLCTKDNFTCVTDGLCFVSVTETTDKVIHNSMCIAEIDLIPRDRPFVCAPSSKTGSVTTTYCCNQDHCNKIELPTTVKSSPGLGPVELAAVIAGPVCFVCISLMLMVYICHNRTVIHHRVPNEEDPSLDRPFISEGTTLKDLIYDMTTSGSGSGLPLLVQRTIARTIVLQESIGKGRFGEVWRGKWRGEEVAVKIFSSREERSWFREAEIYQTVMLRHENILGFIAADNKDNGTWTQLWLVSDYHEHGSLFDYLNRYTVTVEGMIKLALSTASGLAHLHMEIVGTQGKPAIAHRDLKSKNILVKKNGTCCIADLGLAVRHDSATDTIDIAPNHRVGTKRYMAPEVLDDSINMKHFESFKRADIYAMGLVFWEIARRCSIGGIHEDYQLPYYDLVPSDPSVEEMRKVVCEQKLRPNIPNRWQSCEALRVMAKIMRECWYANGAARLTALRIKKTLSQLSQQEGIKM
# [11] = molecular target: T7, anaplastic lymphoma kinase (ALK wt, GST-HIS-tag) (Homo sapiens, UniProt Q9UM73); assay: radiometric protein kinase assay, anaplastic lymphoma kinase; assay type: biochemical; details: Fig. 7A
# T7 construct: GST; His; purchased ProQinase GmbH (Freiburg, Germany); host or cells: bacteria (so in the source)
# T7 sequence (Q9UM73 19-1620): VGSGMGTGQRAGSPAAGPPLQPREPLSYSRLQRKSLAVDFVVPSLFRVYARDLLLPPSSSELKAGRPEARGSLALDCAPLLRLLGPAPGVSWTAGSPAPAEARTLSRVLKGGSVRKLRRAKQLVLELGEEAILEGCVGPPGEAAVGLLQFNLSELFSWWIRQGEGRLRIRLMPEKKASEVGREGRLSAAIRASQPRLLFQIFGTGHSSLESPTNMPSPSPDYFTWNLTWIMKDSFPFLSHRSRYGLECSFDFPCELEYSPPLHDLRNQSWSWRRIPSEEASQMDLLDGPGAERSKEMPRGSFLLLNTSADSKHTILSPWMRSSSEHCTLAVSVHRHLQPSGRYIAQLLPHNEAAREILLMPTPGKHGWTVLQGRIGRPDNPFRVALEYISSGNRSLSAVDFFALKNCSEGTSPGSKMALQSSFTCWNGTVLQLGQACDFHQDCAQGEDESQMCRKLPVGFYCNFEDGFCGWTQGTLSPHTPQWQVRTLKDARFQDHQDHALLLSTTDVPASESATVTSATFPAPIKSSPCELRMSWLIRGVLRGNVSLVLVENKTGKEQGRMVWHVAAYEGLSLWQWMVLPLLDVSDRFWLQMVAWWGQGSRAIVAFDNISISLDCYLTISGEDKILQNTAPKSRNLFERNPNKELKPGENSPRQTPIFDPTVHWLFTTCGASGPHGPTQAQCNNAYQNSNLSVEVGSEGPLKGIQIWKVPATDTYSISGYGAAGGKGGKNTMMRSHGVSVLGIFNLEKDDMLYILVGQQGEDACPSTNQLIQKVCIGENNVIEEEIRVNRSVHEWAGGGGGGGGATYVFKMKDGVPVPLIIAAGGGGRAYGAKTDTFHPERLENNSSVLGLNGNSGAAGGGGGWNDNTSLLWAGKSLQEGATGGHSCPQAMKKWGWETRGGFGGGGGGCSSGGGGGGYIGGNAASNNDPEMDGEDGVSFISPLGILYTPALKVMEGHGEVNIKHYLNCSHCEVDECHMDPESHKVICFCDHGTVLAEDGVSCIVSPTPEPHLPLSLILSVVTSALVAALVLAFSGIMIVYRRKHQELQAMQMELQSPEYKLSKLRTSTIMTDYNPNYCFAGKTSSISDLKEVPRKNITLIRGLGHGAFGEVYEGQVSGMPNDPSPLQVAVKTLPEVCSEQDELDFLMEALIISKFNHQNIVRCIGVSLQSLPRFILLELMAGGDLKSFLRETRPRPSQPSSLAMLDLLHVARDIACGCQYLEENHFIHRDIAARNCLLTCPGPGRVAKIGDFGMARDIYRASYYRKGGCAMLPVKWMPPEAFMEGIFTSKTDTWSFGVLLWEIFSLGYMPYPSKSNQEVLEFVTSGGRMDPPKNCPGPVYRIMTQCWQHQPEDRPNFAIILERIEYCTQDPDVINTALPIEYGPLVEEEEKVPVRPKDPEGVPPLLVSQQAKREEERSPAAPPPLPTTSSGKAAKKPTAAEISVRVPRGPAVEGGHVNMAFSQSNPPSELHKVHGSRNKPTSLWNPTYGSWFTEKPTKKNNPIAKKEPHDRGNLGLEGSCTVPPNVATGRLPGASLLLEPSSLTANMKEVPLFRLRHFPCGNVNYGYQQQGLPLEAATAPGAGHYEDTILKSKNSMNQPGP
# T4 sequence (O00238 14-502): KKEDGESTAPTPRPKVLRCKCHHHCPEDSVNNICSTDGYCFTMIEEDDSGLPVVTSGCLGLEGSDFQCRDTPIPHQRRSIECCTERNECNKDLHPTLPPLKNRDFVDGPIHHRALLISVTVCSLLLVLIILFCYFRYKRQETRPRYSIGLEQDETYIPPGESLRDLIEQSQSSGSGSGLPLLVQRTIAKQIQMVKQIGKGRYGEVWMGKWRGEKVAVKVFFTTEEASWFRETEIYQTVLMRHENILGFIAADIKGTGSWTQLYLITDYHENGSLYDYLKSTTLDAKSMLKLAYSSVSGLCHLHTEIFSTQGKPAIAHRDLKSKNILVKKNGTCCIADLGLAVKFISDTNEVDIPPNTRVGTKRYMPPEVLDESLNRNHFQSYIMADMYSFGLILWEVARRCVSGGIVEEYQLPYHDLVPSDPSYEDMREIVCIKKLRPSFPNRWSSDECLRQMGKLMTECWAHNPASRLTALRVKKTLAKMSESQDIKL
# T3 sequence (P37023 22-503): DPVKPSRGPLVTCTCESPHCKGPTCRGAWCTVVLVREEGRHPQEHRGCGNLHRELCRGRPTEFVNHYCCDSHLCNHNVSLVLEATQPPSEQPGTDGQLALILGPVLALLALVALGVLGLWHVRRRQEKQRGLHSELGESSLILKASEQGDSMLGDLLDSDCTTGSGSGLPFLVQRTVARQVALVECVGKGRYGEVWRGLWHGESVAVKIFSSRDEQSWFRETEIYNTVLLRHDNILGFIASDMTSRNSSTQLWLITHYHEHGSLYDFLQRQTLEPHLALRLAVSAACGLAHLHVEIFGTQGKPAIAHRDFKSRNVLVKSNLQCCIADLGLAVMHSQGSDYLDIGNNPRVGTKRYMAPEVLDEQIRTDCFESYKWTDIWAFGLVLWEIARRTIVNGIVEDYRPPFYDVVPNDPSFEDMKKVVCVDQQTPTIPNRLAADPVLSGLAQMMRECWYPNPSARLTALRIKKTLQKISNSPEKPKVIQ
# T1 sequence (P36894 24-532): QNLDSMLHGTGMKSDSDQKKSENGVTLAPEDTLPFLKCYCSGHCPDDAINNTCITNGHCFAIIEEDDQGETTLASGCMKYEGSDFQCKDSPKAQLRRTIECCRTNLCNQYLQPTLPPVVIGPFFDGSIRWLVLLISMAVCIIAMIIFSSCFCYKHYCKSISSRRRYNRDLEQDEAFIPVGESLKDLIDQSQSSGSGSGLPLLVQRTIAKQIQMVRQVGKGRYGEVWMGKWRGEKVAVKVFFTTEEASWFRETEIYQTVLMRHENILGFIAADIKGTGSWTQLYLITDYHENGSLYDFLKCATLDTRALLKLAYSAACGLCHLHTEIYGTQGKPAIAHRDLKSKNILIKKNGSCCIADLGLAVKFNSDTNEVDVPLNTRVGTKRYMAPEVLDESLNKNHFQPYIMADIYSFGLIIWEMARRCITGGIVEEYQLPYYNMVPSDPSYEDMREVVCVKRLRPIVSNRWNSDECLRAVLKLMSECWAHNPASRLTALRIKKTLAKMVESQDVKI
# T5 sequence (Q02750 whole entry): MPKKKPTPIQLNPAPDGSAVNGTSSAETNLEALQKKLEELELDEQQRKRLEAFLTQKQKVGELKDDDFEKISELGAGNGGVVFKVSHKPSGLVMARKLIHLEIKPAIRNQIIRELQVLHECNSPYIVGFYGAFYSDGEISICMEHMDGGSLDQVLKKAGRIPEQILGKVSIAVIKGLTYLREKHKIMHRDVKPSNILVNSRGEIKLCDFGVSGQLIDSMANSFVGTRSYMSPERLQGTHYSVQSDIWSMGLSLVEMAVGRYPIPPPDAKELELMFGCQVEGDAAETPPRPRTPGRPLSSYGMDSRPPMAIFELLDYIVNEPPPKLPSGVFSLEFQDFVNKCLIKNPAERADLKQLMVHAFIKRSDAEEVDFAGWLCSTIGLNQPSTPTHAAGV
# T2 sequence (P37023 22-503 Q201D): as the sequence (P37023 22-503) above, with Q180D counted along it
smiles,measurement,setting,value
"CC(=O)C1=C(O)C=C2Oc3c(C(N)=O)c(O)cc(O)c3[C@]2(C)C1=O [cercosporamide, Cercosporamide]",IC50,[1],360 nM
same,effect on caALK1-induced SMAD1/5 phosphorylation,[2],inhibited SMAD1/5 phosphorylation
same,IC50,[3],3300 nM
same,IC50,[4],390 nM
same,effect on BMP6-induced SMAD1/5 phosphorylation,[5],only minor inhibition
same,MEK and tyrosine kinase ALK less sensitive than the ALK serine/threonine kinases,[6],7- to 67 fold
same,effect on BMP2-induced BRE-luc activity,[7],inhibited the BMP2-induced response in a dose-dependent manner
same,effect on caALK6-induced SMAD1/5 phosphorylation,[8],inhibited SMAD1/5 phosphorylation
same,IC50,[9],4100 nM
same,IC50,[10],290 nM
same,IC50,[11],10000 nM

# Source: article PMC7522027 (Disease Models & Mechanisms, 2020)
